Reference: patent publication US20250140406A1, “CLASSIFYING TUMORS AND PREDICTING RESPONSIVENESS” (Oncocyte Corporation, priority 2022, published 2025)

What was measured:
[1] = test system: cancer cell lines classified IM, MSL, M; assay: PRISM screen compound sensitivity correlated with IM, MSL and M subtype of cell lines (101 gene signature); format: cell-based
[2] = test system: cancer cell lines, DetermaIO classes; assay: Association of PRISM compound sensitivity with DetermaIO (DTIO) cell line classes; format: cell-based
[3] = correlation of PRISM compound sensitivity with IM subtype correlation; test cell set (188 cell lines)
[4] = correlation of PRISM compound sensitivity with M subtype correlation; test cell set (188 cell lines)
[5] = correlation of PRISM compound sensitivity with MSL subtype correlation; test cell set (188 cell lines)
[6] = subtype (IM, MSL or M) with which compound sensitivity is negatively correlated; training cell set (371 cell lines), 101 gene signature
[7] = correlation of PRISM compound sensitivity with DTIO, test cell set
[8] = correlation of PRISM compound sensitivity with DTIO, training cell set
[9] = correlation of compound sensitivity with DetermaIO (DTIO), test set
[10] = correlation of compound sensitivity with DetermaIO (DTIO), training set
[11] = correlation of PRISM compound sensitivity with DTIO (DetermaIO), test cell set (188 cell lines)
[12] = correlation of PRISM compound sensitivity with DTIO (DetermaIO), training cell set (371 cell lines)
[13] = correlation of PRISM compound sensitivity with IM subtype correlation; test cell set
[14] = correlation of PRISM compound sensitivity with M subtype correlation; test cell set
[15] = correlation of PRISM compound sensitivity with MSL subtype correlation; test cell set
[16] = subtype (IM, MSL or M) assigned to the compound by negative correlation of PRISM sensitivity with subtype; training cell set (371 cell lines), 101 gene signature
[17] = subtype (IM, MSL or M) with which PRISM compound sensitivity is negatively correlated; training cell set, 101 gene signature
[18] = classification of association of compound sensitivity with IM, MSL and M cell line classes; test data set
[19] = association of compound sensitivity with DetermaIO classes, test data set
[20] = association of compound sensitivity with DetermaIO classes, training data set

## C[C@]12CC[C@H]3[C@@H](CC[C@]4(O)C[C@@H](O)CC[C@]34C=O)[C@@]1(O)CC[C@@H]2C1=CC(=O)OC1 [k-strophanthidin]
[1]; [3]
  IM Corr test: −0.06974
[1]; [4]
  M Corr test: −0.03165
[1]; [5]
  MSL Corr test: −0.1099
[1]; [6]
  TNBCType train: MSL
[2]; [7]
  DTIO Corr test: −0.03307
[2]; [8]
  DTIO Corr train: −0.01124

## O=C(NCc1cccc(O)c1)Nc1nc(-c2ccncc2)cs1 [RKI-1447]
[1]; [3]
  IM Corr test: 0.09379
[1]; [4]
  M Corr test: −0.1921
[1]; [5]
  MSL Corr test: −0.2082
[1]; [6]
  TNBCType train: MSL
[1]; subtype (IM, MSL, M) with which compound sensitivity correlates, test set
  TNBCType test: MSL
[1]; subtype (IM, MSL, M) with which compound sensitivity correlates, training set
  TNBCType train: MSL
[1]; subtype (IM, MSL, M) with which compound sensitivity correlates; test set
  TNBCType test: MSL
[1]; subtype (IM, MSL, M) with which compound sensitivity correlates; training set
  TNBCType train: MSL
[2]; [7]
  DTIO Corr test: 0.08122
[2]; [8]
  DTIO Corr train: 0.04633
[2]; correlation of compound sensitivity with DTIO, test set
  DTIO Corr test: 0.08122
[2]; correlation of compound sensitivity with DTIO, training set
  DTIO Corr train: 0.04633
[2]; [9]
  DTIO Corr test: 0.08122
[2]; [10]
  DTIO Corr train: 0.04633

## C[C@@H](N)c1ccc(C(=O)Nc2ccnc3[nH]ccc23)cc1 [Y-39983]
[1]; [3]
  IM Corr test: 0.05616
[1]; [4]
  M Corr test: −0.1022
[1]; [5]
  MSL Corr test: −0.1761
[2]; [11]
  DTIO Corr test: −0.02374
[2]; [12]
  DTIO Corr train: −0.00611

## CC(C)(C)NCc1cc(Nc2ccnc3cc(Cl)ccc23)c2c(c1O)CCCC2.O=P(O)(O)O.O=P(O)(O)O [naphthoquine-phosphate]
[1]; [3]
  IM Corr test: −0.01598
[1]; [4]
  M Corr test: 0.03443
[1]; [5]
  MSL Corr test: −0.02275
[1]; [6]
  TNBCType train: MSL
[2]; [7]
  DTIO Corr test: 0.04517
[2]; [8]
  DTIO Corr train: 0.03212

## C[C@@H](Oc1cc(NS(=O)(=O)N2CCC2)nc(SCc2cccc(F)c2F)n1)[C@@H](O)CO [AZD5069]
[1]; [13]
  IM Corr test: −0.07882
[1]; [14]
  M Corr test: 0.1362
[1]; [15]
  MSL Corr test: 0.02875
[2]; [7]
  DTIO Corr test: −0.00725
[2]; [8]
  DTIO Corr train: −0.151

## CC(C)c1cc(-c2ccc(F)c3ccccc23)nc(N)n1 [RS-127445]
[1]; [3]
  IM Corr test: 0.05394
[1]; [4]
  M Corr test: −0.1296
[1]; [5]
  MSL Corr test: −0.05973
[1]; [16]
  TNBCType train: MSL
[2]; [11]
  DTIO Corr test: 0.0427
[2]; [12]
  DTIO Corr train: 0.05431

## CC(C)(CCCCCCCCCCC(C)(C)CC(=O)O)CC(=O)O [medica-16]
[1]; [3]
  IM Corr test: −0.06152
[1]; [4]
  M Corr test: 0.01613
[1]; [5]
  MSL Corr test: −0.1086
[1]; [16]
  TNBCType train: MSL
[2]; [11]
  DTIO Corr test: 0.004343
[2]; [12]
  DTIO Corr train: −0.05017

## COc1ccc(-c2cc(=O)c3c(OC)c(OC)c(OC)c(OC)c3o2)cc1 [tangeritin]
[1]; [13]
  IM Corr test: −0.06559
[1]; [14]
  M Corr test: 0.04891
[1]; [15]
  MSL Corr test: −0.06252
[2]; [7]
  DTIO Corr test: −0.01838
[2]; [8]
  DTIO Corr train: −0.09411

## CC[C@H](C)[C@@H]([C@@H](CC(=O)N1CCC[C@H]1[C@H](OC)[C@@H](C)C(=O)N[C@@H](Cc1ccccc1)c1nccs1)OC)N(C)C(=O)[C@@H](NC(=O)[C@H](C(C)C)N(C)C)C(C)C [dolastatin-10]
[1]; [3]
  IM Corr test: −0.05477
[1]; [4]
  M Corr test: 0.003299
[1]; [5]
  MSL Corr test: −0.00011
[1]; [16]
  TNBCType train: MSL
[2]; [11]
  DTIO Corr test: −0.08086
[2]; [12]
  DTIO Corr train: −0.07579

## O=C(O)[C@H](O)[C@@H](O)[C@H](O[C@@H]1O[C@H](CO)[C@H](O)[C@H](O)[C@H]1O)[C@H](O)CO [maltobionic-acid]
[1]; [3]
  IM Corr test: 0.1078
[1]; [4]
  M Corr test: −0.08169
[1]; [5]
  MSL Corr test: 0.03716
[2]; [7]
  DTIO Corr test: 0.13
[2]; [8]
  DTIO Corr train: 0.09859

## O=C(O)c1ccc(N2C(=O)/C(=C\c3ccc(-c4ccc([N+](=O)[O-])cc4)o3)C=C2c2ccccc2)cc1 [4E1RCat]
[1]; [3]
  IM Corr test: 0.05564
[1]; [4]
  M Corr test: −0.08971
[1]; [5]
  MSL Corr test: 0.01051
[2]; [11]
  DTIO Corr test: 0.01627
[2]; [12]
  DTIO Corr train: 0.1551

## C=CCNC(=O)c1cc([N+](=O)[O-])cc2c(=O)[nH]c(Nc3ccc(Cl)c(Cl)c3)nc12 [AZ-10417808]
[1]; [13]
  IM Corr test: −0.06367
[1]; [14]
  M Corr test: 0.03341
[1]; [15]
  MSL Corr test: 0.2588
[2]; [7]
  DTIO Corr test: −0.05539
[2]; [8]
  DTIO Corr train: −0.1839

## CCN=C1N[C@@H]2[C@@H](O)[C@H](O)[C@@H](CO)O[C@@H]2S1 [thiamet-g]
[1]; [13]
  IM Corr test: −0.00247
[1]; [14]
  M Corr test: −0.01394
[1]; [15]
  MSL Corr test: −0.01406
[1]; [17]
  TNBCType train: MSL
[2]; [7]
  DTIO Corr test: 0.003014
[2]; [8]
  DTIO Corr train: 0.08206

## COc1ccc(Nc2nccc(NCCO)n2)cc1 [cardiogenol-c]
[1]; [3]
  IM Corr test: −0.05174
[1]; [4]
  M Corr test: −0.01984
[1]; [5]
  MSL Corr test: −0.00925
[1]; subtype (IM, MSL or M) the PRISM compound sensitivity is associated with; training cell set (371 cell lines); 101 gene signature
  TNBCType train: MSL
[2]; correlation of PRISM compound sensitivity with DTIO, test cell set (188 cell lines)
  DTIO Corr test: −0.07629
[2]; correlation of PRISM compound sensitivity with DTIO, training cell set (371 cell lines)
  DTIO Corr train: 0.01043

## Cc1cc(OCCCS(C)(=O)=O)cc(C)c1-c1cccc(COc2ccc3c(c2)OC[C@H]3CC(=O)O)c1 [TAK-875]
[1]; [3]
  IM Corr test: 0.00946
[1]; [4]
  M Corr test: −0.00346
[1]; [5]
  MSL Corr test: −0.00217
[1]; [16]
  TNBCType train: MSL
[2]; [11]
  DTIO Corr test: −0.03291
[2]; [12]
  DTIO Corr train: 0.03182

## OCCn1cc(-c2cnc3nnn(Cc4ccc5ncccc5c4)c3n2)cn1 [PF-04217903]
[1]; [3]
  IM Corr test: −0.04418
[1]; [4]
  M Corr test: 0.07402
[1]; [5]
  MSL Corr test: 0.07771
[2]; [11]
  DTIO Corr test: −0.00139
[2]; [12]
  DTIO Corr train: −0.1163

## Clc1ccc(C2(c3ccc(-c4cn[nH]c4)cc3)CCNCC2)cc1 [AT7867]
[1]; [3]
  IM Corr test: 0.04603
[1]; [4]
  M Corr test: −0.1665
[1]; [5]
  MSL Corr test: −0.1142
[1]; [6]
  TNBCType train: MSL
[2]; [7]
  DTIO Corr test: 0.003574
[2]; [8]
  DTIO Corr train: 0.04812

## Cc1ccc(Sc2cncc3sc(C(N)=O)cc23)cc1 [A205804]
[1]; [3]
  IM Corr test: −0.1562
[1]; [4]
  M Corr test: 0.1655
[1]; [5]
  MSL Corr test: 0.07391
[2]; [11]
  DTIO Corr test: −0.1235
[2]; [12]
  DTIO Corr train: −0.1273

## COc1ccc(/C=C/CCCCOc2ccc(C(=O)c3cccc(C(=O)O)c3)cc2CCC(=O)O)cc1 [LY223982]
[1]; [13]
  IM Corr test: 0.01323
[1]; [14]
  M Corr test: 0.005739
[1]; [15]
  MSL Corr test: −0.01914
[1]; [17]
  TNBCType train: MSL
[2]; [7]
  DTIO Corr test: −0.04973
[2]; [8]
  DTIO Corr train: 0.000351

## C[C@@H](Oc1ccc2[nH]nc(/C=C/c3cnn(CCO)c3)c2c1)c1c(Cl)cncc1Cl [K17203476]
[1]; [18]
  TNBCType test: MSL
[2]; [19]
  DTIO Corr test: −0.0838
[2]; [20]
  DTIO Corr train: −0.1449

## Cc1c(NC(=O)OC[C@@H]2COCCN2)cn2ncnc(Nc3ccc4c(cnn4Cc4cccc(F)c4)c3)c12 [BMS-599626]
[1]; [3]
  IM Corr test: −0.1901
[1]; [4]
  M Corr test: 0.2776
[1]; [5]
  MSL Corr test: 0.4191
[2]; [7]
  DTIO Corr test: −0.02871
[2]; [8]
  DTIO Corr train: −0.07697
[2]; [9]
  DTIO Corr test: −0.02871
[2]; [10]
  DTIO Corr train: −0.07697

## C[C@@H]1NC(C)(C)CO[C@@]1(O)c1cccc(Cl)c1 [K13394247]
[1]; [18]
  TNBCType test: MSL
[2]; [19]
  DTIO Corr test: −0.04236
[2]; [20]
  DTIO Corr train: 0.0598

## Ro-25-6981
[1]; [13]
  IM Corr test: −0.1513
[1]; [14]
  M Corr test: 0.04707
[1]; [15]
  MSL Corr test: −0.0147
[2]; [7]
  DTIO Corr test: −0.1247
[2]; [8]
  DTIO Corr train: −0.07012
